Values quoted from earlier work as cited in patent publication US20200038413A1, “METHODS OF TREATING PARKINSON'S DISEASE USING AMINOSTEROL COMPOSITIONS” (Enterin, Inc., priority 2018, published 2020).
Where a name gives a salt, the structure may show the parent alone.

Key:
[1] = test system: PD population; settings: short term placebo controlled trial, PD constipation; cited from earlier work
[2] = single and repeat intravenous administration, alone or in combination; cited from earlier work

Structure (SMILES)	proportion of those treated in whom effective [1]	well tolerated dose [2]
CCCCC(F)(F)[C@@]1(O)CC[C@H]2[C@@H](CC(=O)[C@@H]2CCCCCCC(=O)O)O1 [Lubiprostone]	about 50%	
CC(C)[C@@H](CC[C@@H](C)[C@H]1CC[C@H]2[C@@H]3[C@H](O)C[C@H]4C[C@@H](NCCCNCCCCN)CC[C@]4(C)[C@H]3CC[C@]12C)OS(=O)(=O)O [Squalamine dilactate salt]		at least 300 mg/m^2
